Experimental data published in ChEMBL document CHEMBL3046929, “Ethyl 4-[2-(6-Methyl-3-pyridyloxy)butyloxy]benzoate, a novel anti-juvenile hormone agent” (2003).
Calls of active or inactive are those of the source. The calls are words filed in the database; no cut-off is given here.

Legend:
[1] = tested on: Bombyx mori; assay: Anti-juvenile activity against newly molted fourth-instar larval stage of Bombyx mori Shunrei x shougetsu reared on artificial diet assessed as induction of precocious pupation at 100 ug; format: functional, organism-based
[2] = tested on: Bombyx mori; assay: Anti-juvenile activity against newly molted third-instar larval stage of Bombyx mori Shunrei x shougetsu reared on artificial diet assessed as induction of precocious pupation at 100 ug; format: functional, organism-based
[3] = tested on: Bombyx mori; assay: Anti-juvenile activity against newly molted third-instar larval stage of Bombyx mori Shunrei x shougetsu reared on artificial diet assessed as induction of precocious metamorphosis at 10 ug/larva relative to control; format: functional
[4] = tested on: Bombyx mori; assay: Anti-juvenile activity against newly molted third-instar larval stage of Bombyx mori Shunrei x shougetsu reared on artificial diet assessed as mortality at 100 ug/larva relative to control; format: functional
[5] = tested on: Bombyx mori; assay: Anti-juvenile activity against newly molted third-instar larval stage of Bombyx mori Shunrei x shougetsu reared on artificial diet assessed as blackening of cuticle measured after third ecdysis; format: functional, organism-based
[6] = tested on: Bombyx mori; assay: Anti-juvenile activity against newly molted third-instar larval stage of Bombyx mori Shunrei x shougetsu reared on artificial diet assessed as induction of precocious pupation at 1 to 100 ug/larva; format: functional, organism-based
[7] = tested on: Bombyx mori; assay: Anti-juvenile activity against newly molted third-instar larval stage of Bombyx mori Shunrei x shougetsu reared on artificial diet assessed as induction of precocious metamorphosis at 100 ug/larva relative to control; format: functional
[8] = tested on: Bombyx mori; assay: Anti-juvenile activity against newly molted fourth-instar larval stage of Bombyx mori Shunrei x shougetsu reared on artificial diet assessed as induction of precocious metamorphosis in presence of juvenile hormone agonist methoprene; format: functional
[9] = tested on: Bombyx mori; assay: Anti-juvenile activity against newly molted third-instar larval stage of Bombyx mori Shunrei x shougetsu reared on artificial diet assessed as induction of precocious metamorphosis in presence of juvenile hormone agonist methoprene; format: functional
[10] = tested on: Bombyx mori; assay: Anti-juvenile activity against newly molted fourth-instar larval stage of Bombyx mori Shunrei x shougetsu reared on artificial diet assessed as induction of precocious pupation; format: functional, organism-based
[11] = tested on: Bombyx mori; assay: Anti-juvenile activity against newly molted fourth-instar larval stage of Bombyx mori Shunrei x shougetsu reared on artificial diet assessed as induction of precocious metamorphosis in presence of 20-hydroxyecdysone; format: functional
[12] = tested on: Bombyx mori; assay: Anti-juvenile activity against newly molted third-instar larval stage of Bombyx mori Shunrei x shougetsu reared on artificial diet assessed as induction of precocious metamorphosis in presence of 20-hydroxyecdysone; format: functional
[13] = tested on: Bombyx mori; assay: Anti-juvenile activity against newly molted third-instar larval stage of Bombyx mori Shunrei x shougetsu reared on artificial diet assessed as induction of precocious metamorphosis at 1 ug/larva relative to control; format: functional

| SMILES | Activity [1] | Activity [2] | Activity [3] [%] | also measured |
| --- | --- | --- | --- | --- |
| CCOC(=O)c1cccc(OCC(CC)Oc2ccc(C)nc2)c1 (stereo unspecified) | inactive | inactive |  |  |
| CCc1cccc(OCC(CC)Oc2ccc(C)nc2)c1 (stereo unspecified) | inactive | inactive |  |  |
| Cc1ccc(OCCOc2cccc(Cl)c2)cn1 |  |  | 0 | mortality [4]: 100% |
| CCc1ccc(OCC(CC)Oc2ccc(C)nc2)cc1 (stereo unspecified) | inactive | inactive |  |  |
| CCOC(=O)c1ccc(OCC(CC)Oc2ccc(C)nc2)cc1 (stereo unspecified) |  |  | 40 | Activity [5]: Active; Activity [6]: inactive; Activity [7]: 83%; Activity [8]: 0%; Activity [9]: 0%; Activity [10]: inactive; Activity [11]: 84%; Activity [12]: 90%; Activity [13]: 0% |
| CCC(COc1ccc(Cl)cc1)Oc1ccc(C)nc1 (stereo unspecified) | inactive | inactive |  |  |
| CCOC(=O)c1ccc(OCC(CC)OC(=O)C(C)(C)C)cc1 (stereo unspecified) |  |  | 23 | Activity [7]: 0%; Activity [10]: inactive; Activity [13]: 0% |
| CCC(COc1cccc(Cl)c1)Oc1ccc(C)nc1 (stereo unspecified) | inactive | inactive |  |  |
